These results are taken from patent US12527789B2, “Inhibition of a tripartite VOR protein complex in multicellular organisms” (TECHNISCHE UNIVERSITÄT DRESDEN, priority 2018, dated 2026).

The subject of the experiment is nuclear pores and importin β1. The experiment is described as follows: NEI-associated late endosomes and transfer of EV-derived components into the nucleoplasm after importazole treatment. It is filed as cell-based. The text has this:
Referring to FIGS. 1A, 1B and 1C, illustrated are schematic illustrations of data showing the localization and the tripartite structure of a VOR complex. […] Typically, EVs are transported to late endosomes after their endocytosis, wherein the EVs facilitate intercellular communication in diverse cellular processes.

As for `CC(Nc1nc(N2CCCC2)nc2ccccc12)c1ccccc1` (centres unmarked) [importazole], the “transfer of EV-derived components into the nucleoplasm of host cells” value was “inhibition of transfer of EV-derived components into the nucleoplasm of host cells”. Besides, the “presence of nuclear envelope invagination (NEI)-associated late endosomes” value (host cells after importazole treatment) is “lack of the nuclear envelope invagination (NEI)-associated late endosomes”.
